Each structure is given as a SMILES string.

In the case of `O=C(NCC1CN(c2ccc(N3CCCC3=O)cc2)C(=O)CO1)c1ccc(Cl)s1` (stereo not shown) [Example 4, 5-Chloro-N-({5-oxo-4-[4-(2-oxo-1-pyrrolidinyl)phenyl]-2-morpholinyl}methyl)-2-thiophenecarboxamide], the melting point is 201 °C (dec.).
